Experimental data: patent publication US20230337671A1, “DISINFECTANT COMPOSITION” (Helperby Therapeutics Limited, priority 2020, published 2023)

Experiments:
Assay type in all cases: physicochemical
[1] = Surface tension, Wilhelmy plate method (DataPhysics DCAT 9 tensionmeter); conditions: 0.03% w/w HT61 in demineralised water, assumed saturated; measured three times
Experimental: (§1) To support the use of a low concentration of HT61 acting as an emollient in an aqueous disinfectant composition, the surface tension, contact angle and hydrophilic lipophilic balance (HLB) of this compound were determined. • Sample Preparation: A 0.03% w/w solution was required for both the contact angle and surface tension measurements. This solution was prepared by adding 0.075 g of the HT61 solid (obtained according to the method set out in WO 2007/054693 A1 discussed above) to 250 ml of demineralised water. Some solid remained in solution so analysis was carried out using UV-Vis Spectroscopy. […] The surface tension of the sample was measured using a DataPhysics DCAT 9 tensionmeter and the Wilhelmy plate method. The measurement was made three times, with the plate being cleaned between each measurement. • The contact angle was measured on the surface of parafilm. A sample of parafilm was wrapped around a glass slide and the protective film removed. The contact angle of the liquid with the parafilm was measured by placing a small (e.g. 2 μl) drop of test liquid (the sample) on the test surface. The profile of the drop was measured as a function of time using a DataPhysics OCA 35. Each liquid was measured three times. The contact angles were determined 2 s, 12 s and 30 s after the drop first touched the surface. […]

[2] = Contact angle of a drop on the surface of parafilm (DataPhysics OCA 35); conditions: 0.03% w/w solution
Experimental: To support the use of a low concentration of HT61 acting as an emollient in an aqueous disinfectant composition, the surface tension, contact angle and hydrophilic lipophilic balance (HLB) of this compound were determined. • Sample Preparation: A 0.03% w/w solution was required for both the contact angle and surface tension measurements. This solution was prepared by adding 0.075 g of the HT61 solid (obtained according to the method set out in WO 2007/054693 A1 discussed above) to 250 ml of demineralised water. Some solid remained in solution so analysis was carried out using UV-Vis Spectroscopy. […] The surface tension of the sample was measured using a DataPhysics DCAT 9 tensionmeter and the Wilhelmy plate method. The measurement was made three times, with the plate being cleaned between each measurement. • The contact angle was measured on the surface of parafilm. A sample of parafilm was wrapped around a glass slide and the protective film removed. The contact angle of the liquid with the parafilm was measured by placing a small (e.g. 2 μl) drop of test liquid (the sample) on the test surface. The profile of the drop was measured as a function of time using a DataPhysics OCA 35. Each liquid was measured three times. The contact angles were determined 2 s, 12 s and 30 s after the drop first touched the surface. For reference, the contact angle of demineralised water was also measured. • The HLB Value was obtained using […] mathematical method (Griffin, W.C., Calculation of HLB Values of Non-Ionic Surfactants, Journal of the Society of Cosmetic Chemists, 1954, 5(4), 249-56): • [formula] • where Mh is the molecular weight of hydrophilic groups (44 gmol^-1) and M is the molecular weight of the whole molecule (380 gmol^-1). • The factor 20 is a scaling factor. Thus a scale of 1 to 20 is generally obtained.

[3] = Preparation of 0.03% w/w HT61 solution in demineralised water, UV-Vis check; conditions: 0.075 g HT61 solid added to 250 ml demineralised water (0.03% w/w)
Experimental: as §1

Average Surface Tension [1]: 55.7 mN/m | Average Contact Angle @2s ([2]; 2 s after drop touched surface): 98 | Average Contact Angle @12s ([2]; 12 s after drop touched surface): 96 | Average Contact Angle @30s ([2]; 30 s after drop touched surface): 96 | Dissolution of HT61 solid in demineralised water [3]: the solution was saturated
Structure (SMILES): Cc1nc2ccc(Oc3ccccc3)cc2c2c1CCN2CCc1ccccc1 [HT61, 4-methyl-8-phenoxy-1-(2-phenylethyl)-2,3-dihydro-1H-pyrrolo[3,2-c]quinoline]
